Test results taken from patent US20130202681A1 (priority 2012, published 2013).
Like-named read-outs stand apart in the source and are kept apart here.

Columns and labels:
[1] = test system: Mycobacterium tuberculosis; details: 10 millimolar
[2] = liver, water control = 0%
[3] = mouse, in vivo; cited from earlier work
[4] = in vivo; cited from earlier work

SMILES | CFU/ml reduced to [1] | toxin removal ([2]; intravenous) | toxin removal ([2]; oral) | decrease of incidence or size of hepatic nodules or tumors [3] | absorption after oral ingestion [4]
CC(=O)N[C@@H](CS)C(=O)O [NAC, N-acetyl cysteine] | 8,000 CFU/ml | – | – | – | –
N[C@@H](CCC(=O)N[C@@H](CS)C(=O)NCC(=O)O)C(=O)O [Plain glutathione, glutathione] | – | 70% | 10% | no benefit | not absorbed
